Experimental data from patent publication US10344266B2, “Cell mass capable of serving as a primitive organ-like structure comprised of a plurality of cell types of somatic origin” (priority 2006, dated 2019).

Key:
Format in all cases: cell-based, human
[1] = tested on: cell mass of hair papilla cells and epidermal keratinocytes; experiment: Immunohistofluorescent staining of hanging-drop cell mass (hair papilla cells and keratinocytes)
Experimental: 30% Advanced DMEM (Invitrogen), 2 mM L-glutamine, a mixture of penicillin and streptomycin (Invitrogen, 100-fold dilution) and 3.5 μl/50 ml of β-mercaptoethanol were mixed with Humedia KG-2 (Kurabo) at a ratio of 1:1.
(§1) In the case of adding BIO (Calbiochem), the BIO was dissolved to 10 mM with dimethylsulfoxide (DMSO) and added to a concentration of 0.1 to 5 μM.
(§2) Hair papilla cells were prepared to P3 or more (with P1 indicating one round of subculturing) in the presence or absence of BIO loading, while keratinocytes were prepared up to and including P3.
(§3) Each of the cells was diluted with each medium following trypsin treatment so as to obtain 1×10^5 cells.
(§4) 25 to 35 μl of each culture medium was dispensed onto the inside of the upper lid of a square culture dish measuring 10 cm on a side and mixed to prepare dome-shaped droplets of a suitable size.
(§5) Three days later, the medium was replaced with the same medium as that used above. […]
In the color version of this diagram, green coloring by vimentin antibody and red coloring by CD49f antibody can be distinguished, and each were able to be determined to be hair papilla cells and keratinocytes, respectively. […] After the cell masses formed following the addition of BIO, red-staining keratinocytes were determined to be growing in a regular manner in the form of branches within cell masses cultured in the absence of BIO. […]

[2] = tested on: cell masses prepared with hair papilla cells and outer root sheath cells; experiment: Immunohistofluorescent staining of cell mass prepared with hair papilla cells and outer root sheath cells
Experimental: Each of the cell masses obtained with the hanging drop method were fixed for 5 minutes with 0.1% paraformaldehyde and submitted for staining. In addition, a portion of the cell masses were embedded in OCT solution without fixing and prepared into frozen sections with a cryostat followed by immunohistostaining.
Blocking was carried out for 6 hours with PBS(−) containing 13% bovine serum albumin (BSA).
Each of the primary antibodies indicated in the following table were diluted by 1/200 with the aforementioned PBS(−) containing 13% bovine serum albumin (BSA), added to each sample and allowed to react for 4 hours at 4° C.
The cells were washed three times with PBS(−) containing 0.02% Tween 20.
Fluorescent secondary antibody (see Excel file) diluted by 1/200 with the aforementioned PBS(−) containing 13% bovine serum albumin (BSA) was added to each sample. In addition, the nuclei of the cells were stained blue with DAPI (4′-6-diamidino-2-phenylindole).
Antibody to cytokeratin 14 (K14) expressed in epidermal keratinocytes and outer root sheath cells is used for the purpose of confirming that these cells have not differentiated to hair roots (red). Since AE13 monoclonal antibody, which specifically reacts to hair keratin (Lynch et al., J. Cell Biol., 103, 2593, 1986), recognizes 44K/46K acidic hair keratin dimer, it is used to mark differentiation into hair roots (green). […]

[3] = tested on: Lef-1; experiment: RT-PCR analysis (1) of cell mass, Lef-1; details: in the presence of BIO (also detected in its absence), FIG. 7
Experimental: as §2, §3, §1, §4
(§6) Three days later, the medium was replaced with the same medium as that used above.
(§7) After culturing for an additional four days, a portion of the medium was subjected to RT-PCR analysis (1) as described below. All of the remaining media was replaced with medium under conditions of the absence of BIO.
(§8) RNA was extracted from each sample using Trizol (Invitrogen). An equivalent of 200 ng of each RNA was reverse transcribed to cDNA with a reaction system consisting of 50 μl of RevTraACE (Toyobo). 1 μl of the resulting samples was applied to a PCR reaction in a 50 μl system using the primers listed below. […]

[4] = tested on: SHH (Sonic Hedge Hog); experiment: RT-PCR analysis (1) of cell mass, SHH; details: in the presence of BIO (same in its absence), FIG. 7
Experimental: as §2, §3, §1, §4, §6, §7, §8

[5] = tested on: STAT-3; experiment: RT-PCR analysis (1) of cell mass, STAT-3; details: presence of BIO compared with absence, FIG. 7
Experimental: as §2, §3, §1, §4, §6, §7, §8

[6] = tested on: TWIST-1; experiment: RT-PCR analysis (1) of cell mass, TWIST-1; details: in the presence of BIO, ascribed to relative decrease of hair papilla cells, FIG. 7
Experimental: as §2, §3, §1, §4, §6, §7, §8

[7] = tested on: Versican gene; experiment: RT-PCR analysis (1) of cell mass, Versican; details: in the presence of BIO, ascribed to relative decrease of hair papilla cells, FIG. 7
Experimental: as §2, §3, §1, §4, §6, §7, §8

[8] = tested on: Wnt3A; experiment: Wnt3A RT-PCR, RT-PCR analysis (2) of cell mass; details: FIG. 8
Experimental: Hair papilla cells were prepared to P3 (with P1 indicating one round of subculturing) in the presence of BIO loading, while keratinocytes were prepared up to and including P3.
(§9) Each of the cells was diluted with each medium following trypsin treatment so as to obtain 3×10^3 cells.
(§10) BIO (Calbiochem) was dissolved to 10 mM with dimethylsulfoxide (DMSO) and added to a concentration of 0.1 to 5 μM.
as §4
Three days later, the medium was replaced with the same medium as that used above. The samples were collected on the 7th day and submitted for RT-PCR analysis (2) as described below (“0 day” in FIG. 8). The medium used for the same remaining cells was replaced with medium under conditions of the absence of BIO to induce differentiation, after which the samples collected on the 3rd day were submitted for RT-PCR analysis (2) as described below (“3 days” in FIG. 8).
RNA was extracted from the samples using Trizol (Invitrogen). […]
10 μl of the reaction solution was electrophoresed at 100 V in 2% agarose gel (Cosmobio)/TAE buffer. Target bands were detected after visualizing with ethidium bromide.

[9] = tested on: Wnt10B; experiment: Wnt10B RT-PCR, RT-PCR analysis (3), quantitative PCR of cell mass; details: FIG. 9
Experimental: Hair papilla cells were prepared to P3 (with P1 indicating one round of subculturing) in the absence of BIO loading, while outer root sheath cells were prepared up to and including P3.
as §9, §10, §4, §5
RNA was extracted from the samples using Trizol (Invitrogen). […] 4 μl of the resulting samples were applied to a quantitative PCR system (LightCycler System, Roche) in a 20 μl system using the primers listed below. […]
All data was expressed as the relative expressed amount based on the expressed amount after 3 days in the case of not loading the cell mass with BIO. […] Accordingly, in this experimental system, differentiation of follicular epithelial cells (outer root sheath cells), and what is more, autonomous organogenesis were clearly determined to be induced by culturing in the presence of BIO followed by culturing after removing BIO.

O=C1Nc2cc(Br)ccc2/C1=C1/Nc2ccccc2/C1=N\O [BIO, (2′Z,3′E)-6-bromoindirubin-3′-oxime]
staining for the proliferation marker, K167, in the cell mass ([1]; cell mass formed by adding BIO 0.1 to 5 μM, central portion and branch-like end portion, FIG. 3): positive | staining by AE13 antibody (hair keratin) ([1]; hair papilla cells and epidermal keratinocytes, stimulated with BIO, no staining without BIO, FIG. 5): staining is observed in some cell masses | immunostaining by Ber-EP4 antibody (hair buds) ([2]; hair papilla cells and outer root sheath cells stimulated with BIO, FIG. 6): clearly observed | staining by AE13 antibody (hair keratin) ([2]; hair papilla cells and outer root sheath cells, BIO stimulation versus absence of BIO, FIG. 5): considerably enhanced | expression of Lef-1 gene [3]: detected | expression of SHH gene [4]: not detected | expression of STAT-3 gene [5]: detected prominently | expression of TWIST-1 gene [6]: expression appearing to decrease | expression of Versican gene [7]: expression appearing to decrease | expression of Wnt3A ([8]; 3rd day after removal of BIO ("3 days")): expression of Wnt3A was observed | expression of Wnt3A ([8]; cultured in the presence of BIO, 7th day ("0 day")): not being observed at all | expression of Wnt10B, relative expressed amount ([9]; after removing BIO (day 10 and day 14)): increased over time | expression of Wnt10B, relative expressed amount ([9]; cultured in the presence of BIO (day 7), versus control cultured in the absence of BIO): about the same level as that of a control
